Assay results published in US20130028987A1, “Method of treating psoriasis” (priority 2011, published 2013).

Test system: phosphorylase kinase
Assay: inhibition of phosphorylase kinase activity
Format: biochemical
Settings: findings of the instant inventor; no experiment described

COc1cc(/C=C/C(=O)CC(=O)/C=C/c2ccc(O)c(OC)c2)ccc1O [Curcumin]
inhibition of phosphorylase kinase: selective and non-competitive inhibitor of phosphorylase kinase
